Assay results: patent US12226412B2, “Heteroaryl-ketone fused azadecalin glucocorticoid receptor modulators” (Corcept Therapeutics, Inc., priority 2012, dated 2025)
Read-outs that look alike come from different tables or passages of the source.

Experiments:
human recombinant GR = target: T1, human recombinant GR (Homo sapiens, UniProt P04150); experiment: Human glucocorticoid receptor (GR) fluorescence polarisation (FP) binding assay
T1 construct: purchased PanVera P2812
T1 sequence (P04150 1-777): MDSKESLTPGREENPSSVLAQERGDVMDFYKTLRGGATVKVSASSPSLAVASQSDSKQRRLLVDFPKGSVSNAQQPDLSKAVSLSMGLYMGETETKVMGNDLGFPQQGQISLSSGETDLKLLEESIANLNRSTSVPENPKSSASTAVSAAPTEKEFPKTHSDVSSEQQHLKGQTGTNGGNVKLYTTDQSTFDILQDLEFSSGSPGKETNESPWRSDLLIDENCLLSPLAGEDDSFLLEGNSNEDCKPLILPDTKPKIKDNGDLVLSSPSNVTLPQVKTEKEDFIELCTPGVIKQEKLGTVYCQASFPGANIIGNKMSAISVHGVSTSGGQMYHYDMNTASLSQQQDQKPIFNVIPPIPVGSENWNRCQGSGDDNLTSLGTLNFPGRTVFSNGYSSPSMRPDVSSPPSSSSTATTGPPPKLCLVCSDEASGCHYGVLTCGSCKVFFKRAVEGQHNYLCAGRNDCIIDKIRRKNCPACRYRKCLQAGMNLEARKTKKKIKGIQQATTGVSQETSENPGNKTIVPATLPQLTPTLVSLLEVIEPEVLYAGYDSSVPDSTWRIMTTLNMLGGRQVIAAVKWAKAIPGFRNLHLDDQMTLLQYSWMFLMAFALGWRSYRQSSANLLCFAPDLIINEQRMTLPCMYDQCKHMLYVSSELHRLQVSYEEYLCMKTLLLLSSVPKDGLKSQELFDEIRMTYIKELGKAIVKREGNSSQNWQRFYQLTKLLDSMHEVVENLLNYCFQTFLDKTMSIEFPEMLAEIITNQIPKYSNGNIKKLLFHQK
Outline: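 Competition fluorescence polarisation: 0.5 nM GS Red labelled glucocorticoid and 1 nM recombinant human GR with 8-point half-log compound series, 1% DMSO, 4 h room temperature, potassium phosphate pH 7.4 buffer with molybdate, EDTA, DTT. Affinity derived from the drop in polarisation, normalised to blank wells.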

[1] = system: induction of TAT by dexamethasone in HepG2 cells; experiment: HepG2 tyrosine aminotransferase (TAT) assay; format: cell-based, human
[2] = human recombinant GR, fluorescence polarisation binding assay, read-out: GR binding
[3] = HepG2 cells, challenge of 100 nM dexamethasone, Ki from IC50 by Cheng and Prusoff equation

## CCCn1nncc1S(=O)(=O)N1CCC2=Cc3c(cnn3-c3ccc(F)cc3)C[C@]2(C(=O)c2ccccn2)C1 [Example 11CO, (R)-(1-(4-fluorophenyl)-6-((1-propyl-1H-1,2,3-triazol-5-yl)sulfonyl)-4,4a,5,6,7,8-hexahydro-1H-pyrazolo[3,4-g]isoquinolin-4a-yl)(pyridin-2-yl)methanone]
Human recombinant GR; [2]
  Ki: > 1 nM
[1]; [3]
  Ki: 20 to 100 nM

## O=C(c1ccccn1)[C@]12Cc3cnn(-c4ccc(F)cc4)c3C=C1CCN(S(=O)(=O)c1ccc(OC(F)F)cc1)C2 [Example 11H, (R)-(6-((4-(difluoromethoxy)phenyl)sulfonyl)-1-(4-fluorophenyl)-4,4a,5,6,7,8-hexahydro-1H-pyrazolo[3,4-g]isoquinolin-4a-yl)(pyridin-2-yl)methanone]
Human recombinant GR; [2]
  Ki: < 0.5 nM
[1]; [3]
  Ki: < 20 nM

## Cc1ccnc(C(=O)[C@]23Cc4cnn(-c5ccc(F)cc5)c4C=C2CCN(S(=O)(=O)c2cn(C)nc2C)C3)c1 [Example 11AQ, (R)-(6-((1,3-dimethyl-1H-pyrazol-4-yl)sulfonyl)-1-(4-fluorophenyl)-4,4a,5,6,7,8-hexahydro-1H-pyrazolo[3,4-g]isoquinolin-4a-yl)(4-methylpyridin-2-yl)methanone]
Human recombinant GR; [2]
  Ki: < 0.5 nM
[1]; [3]
  Ki: 20 to 100 nM

## COc1cccc(S(=O)(=O)N2CCC3=Cc4c(cnn4-c4ccc(F)cc4)C[C@]3(C(=O)c3ccccn3)C2)c1 [Example 2G, (R)-(1-(4-fluorophenyl)-6-((3-methoxyphenyl)sulfonyl)-4,4a,5,6,7,8-hexahydro-1H-pyrazolo[3,4-g]isoquinolin-4a-yl)(pyridin-2-yl)methanone]
Human recombinant GR
  Ki: < 0.5 nM
[1]
  Ki: < 20 nM

## Cn1cc(S(=O)(=O)N2CCC3=Cc4c(cnn4-c4ccc(F)cc4)C[C@]3(C(=O)c3cc(C(F)(F)F)ccn3)C2)cn1 [Example 18, (R)-(1-(4-fluorophenyl)-6-((1-methyl-1H-pyrazol-4-yl)sulfonyl)-4,4a,5,6,7,8-hexahydro-1H-pyrazolo[3,4-g]isoquinolin-4a-yl)(4-(trifluoromethyl)pyridin-2-yl)methanone]
Human recombinant GR; [2]
  Ki: < 0.5 nM
[1]; [3]
  Ki: < 20 nM

## CCCn1ncc(S(=O)(=O)N2CCC3=Cc4c(cnn4-c4ccc(F)cc4)C[C@]3(C(=O)c3cc(C(F)(F)F)ccn3)C2)n1 (single isomer, unassigned) [Example 11DC]
Human recombinant GR; [2]
  Ki: 0.5 to 1 nM
[1]; [3]
  Ki: < 20 nM

## O=C(c1cc(C(F)(F)F)ccn1)[C@]12Cc3cnn(-c4ccc(F)cc4)c3C=C1CCN(S(=O)(=O)c1cn[nH]c1)C2 [Example 11BO, (R)-(6-((1H-pyrazol-4-yl)sulfonyl)-1-(4-fluorophenyl)-4,4a,5,6,7,8-hexahydro-1H-pyrazolo[3,4-g]isoquinolin-4a-yl)(4-(trifluoromethyl)pyridin-2-yl)methanone]
Human recombinant GR; [2]
  Ki: < 0.5 nM
[1]; [3]
  Ki: < 20 nM

## O=C(c1ccccn1)[C@]12Cc3cnn(-c4ccc(F)cc4)c3C=C1CCN(S(=O)(=O)c1ccc(C(F)(F)F)nc1)C2 [Example 2N, (R)-(1-(4-fluorophenyl)-6-((6-(trifluoromethyl)pyridin-3-yl)sulfonyl)-4,4a,5,6,7,8-hexahydro-1H-pyrazolo[3,4-g]isoquinolin-4a-yl) (pyridin-2-yl)methanone]
Human recombinant GR; [2]
  Ki: < 0.5 nM
[1]; [3]
  Ki: < 20 nM

## Cn1ccc(S(=O)(=O)N2CCC3=Cc4c(cnn4-c4ccc(Cl)cc4)C[C@]3(C(=O)c3cc(C(F)(F)F)ccn3)C2)n1 [Example 11BR, (R)-(1-(4-chlorophenyl)-6-((1-methyl-1H-pyrazol-3-yl)sulfonyl)-4,4a,5,6,7,8-hexahydro-1H-pyrazolo[3,4-g]isoquinolin-4a-yl)(4-(trifluoromethyl)pyridin-2-yl)methanone]
Human recombinant GR; [2]
  Ki: 0.5 to 1 nM
[1]; [3]
  Ki: < 20 nM

## Cc1ccnc(C(=O)[C@]23Cc4cnn(-c5ccc(F)cc5)c4C=C2CCN(S(=O)(=O)c2ccn(C)n2)C3)c1 [Example 11AK, (R)-(1-(4-fluorophenyl)-6-((1-methyl-1H-pyrazol-3-yl)sulfonyl)-4,4a,5,6,7,8-hexahydro-1H-pyrazolo[3,4-g]isoquinolin-4a-yl)(4-methylpyridin-2-yl)methanone]
Human recombinant GR; [2]
  Ki: < 0.5 nM
[1]; [3]
  Ki: < 20 nM
